Assay results reported in ChEMBL document CHEMBL4507315 (2021).

How the values were obtained:
[1] = biological target: Bone morphogenetic protein receptor type-1B (Homo sapiens) (UniProt O00238); conditions: Compound concentration 100.0 nM
[2] = biological target: Ephrin type-B receptor 1 (Homo sapiens) (UniProt P54762); conditions: Compound concentration 100.0 nM
[3] = biological target: Protein kinase C epsilon type (Homo sapiens) (UniProt Q02156); conditions: Compound concentration 100.0 nM
[4] = biological target: Insulin receptor (Homo sapiens) (UniProt P06213); conditions: Compound concentration 100.0 nM
[5] = biological target: Mast/stem cell growth factor receptor Kit (Homo sapiens) (UniProt P10721); conditions: Compound concentration 100.0 nM
[6] = system: Proto-oncogene tyrosine-protein kinase receptor Ret (Homo sapiens), P07949 [V804M]; conditions: Compound concentration 100.0 nM
[7] = biological target: Serine/threonine-protein kinase OSR1 (Homo sapiens) (UniProt O95747); conditions: Compound concentration 100.0 nM
[8] = biological target: Tyrosine-protein kinase Tec (Homo sapiens) (UniProt P42680); conditions: Compound concentration 100.0 nM
[9] = system: Tyrosine-protein kinase ABL1 (Homo sapiens), P00519 [M351T]; conditions: Compound concentration 100.0 nM
[10] = biological target: Cyclin-dependent kinase-like 2 (Homo sapiens) (UniProt Q92772); conditions: Compound concentration 100.0 nM
[11] = system: Receptor-type tyrosine-protein kinase FLT3 (Homo sapiens), P36888 [UNDEFINED MUTATION]; conditions: Compound concentration 100.0 nM
[12] = biological target: Serine/threonine-protein kinase BRSK1 (Homo sapiens) (UniProt Q8TDC3); conditions: Compound concentration 100.0 nM
[13] = biological target: Tyrosine-protein kinase JAK1 (Homo sapiens) (UniProt P23458); conditions: Compound concentration 100.0 nM
[14] = system: Tyrosine-protein kinase ABL1 (Homo sapiens), P00519 [T315I]; conditions: Compound concentration 100.0 nM
[15] = biological target: TRAF2 and NCK-interacting protein kinase (Homo sapiens) (UniProt Q9UKE5); conditions: Compound concentration 100.0 nM
[16] = biological target: Homeodomain-interacting protein kinase 4 (Homo sapiens) (UniProt Q8NE63); conditions: Compound concentration 100.0 nM
[17] = biological target: Muscarinic acetylcholine receptor M2 (Homo sapiens) (UniProt P08172); conditions: Compound concentration 10.0 uM
[18] = biological target: 5'-AMP-activated protein kinase catalytic subunit alpha-2 (Homo sapiens) (UniProt P54646); conditions: Compound concentration 100.0 nM
[19] = biological target: Ephrin type-A receptor 5 (Homo sapiens) (UniProt P54756); conditions: Compound concentration 100.0 nM
[20] = biological target: MAP kinase-activated protein kinase 2 (Homo sapiens) (UniProt P49137); conditions: Compound concentration 100.0 nM
[21] = biological target: 1-phosphatidylinositol 3-phosphate 5-kinase (Homo sapiens) (UniProt Q9Y2I7); conditions: Compound concentration 100.0 nM
[22] = system: Tyrosine-protein kinase ABL1 (Homo sapiens), P00519 [Y253F]; conditions: Compound concentration 100.0 nM
[23] = biological target: Tyrosine-protein kinase Fer (Homo sapiens) (UniProt P16591); conditions: Compound concentration 100.0 nM
[24] = biological target: Epidermal growth factor receptor (Homo sapiens) (UniProt P00533); conditions: Compound concentration 100.0 nM
[25] = biological target: Serine/threonine-protein kinase pim-2 (Homo sapiens) (UniProt Q9P1W9); conditions: Compound concentration 100.0 nM
[26] = biological target: Mitogen-activated protein kinase kinase kinase 6 (Homo sapiens) (UniProt O95382); conditions: Compound concentration 100.0 nM
[27] = biological target: D(1B) dopamine receptor (Homo sapiens) (UniProt P21918); conditions: Compound concentration 10.0 uM
[28] = biological target: Serine/threonine-protein kinase Nek4 (Homo sapiens) (UniProt P51957); conditions: Compound concentration 100.0 nM
[29] = biological target: Receptor-interacting serine/threonine-protein kinase 1 (Homo sapiens) (UniProt Q13546); conditions: Compound concentration 100.0 nM
[30] = biological target: Phosphatidylinositol 4,5-bisphosphate 3-kinase catalytic subunit beta isoform (Homo sapiens) (UniProt P42338); conditions: Compound concentration 100.0 nM
[31] = biological target: MAP/microtubule affinity-regulating kinase 4 (Homo sapiens) (UniProt Q96L34); conditions: Compound concentration 100.0 nM
[32] = biological target: Calcium/calmodulin-dependent protein kinase type II subunit beta (Homo sapiens) (UniProt Q13554); conditions: Compound concentration 100.0 nM
[33] = biological target: Dual specificity mitogen-activated protein kinase kinase 6 (Homo sapiens) (UniProt P52564); conditions: Compound concentration 100.0 nM
[34] = system: Epidermal growth factor receptor (Homo sapiens), P00533 [UNDEFINED MUTATION]; conditions: Compound concentration 100.0 nM
[35] = biological target: Tyrosine-protein kinase ABL1 (Homo sapiens) (UniProt P00519); conditions: Compound concentration 100.0 nM
[36] = biological target: Non-receptor tyrosine-protein kinase TYK2 (Homo sapiens) (UniProt P29597); conditions: Compound concentration 100.0 nM
[37] = biological target: Mu-type opioid receptor (Homo sapiens) (UniProt P35372); conditions: Compound concentration 10.0 uM
[38] = biological target: Mitogen-activated protein kinase kinase kinase 13 (Homo sapiens) (UniProt O43283); conditions: Compound concentration 100.0 nM
[39] = biological target: Phosphatidylinositol 4-phosphate 5-kinase type-1 gamma (Homo sapiens) (UniProt O60331); conditions: Compound concentration 100.0 nM
[40] = biological target: MAP kinase-interacting serine/threonine-protein kinase 2 (Homo sapiens) (UniProt Q9HBH9); conditions: Compound concentration 100.0 nM
[41] = biological target: Tyrosine-protein kinase ITK/TSK (Homo sapiens) (UniProt Q08881); conditions: Compound concentration 100.0 nM
[42] = biological target: Tyrosine-protein kinase JAK3 (Homo sapiens) (UniProt P52333); conditions: Compound concentration 100.0 nM
[43] = biological target: 5-hydroxytryptamine receptor 1E (Homo sapiens) (UniProt P28566); conditions: Compound concentration 10.0 uM
[44] = biological target: Activin receptor type-2B (Homo sapiens) (UniProt Q13705); conditions: Compound concentration 100.0 nM
[45] = biological target: BMP-2-inducible protein kinase (Homo sapiens) (UniProt Q9NSY1); conditions: Compound concentration 100.0 nM

Sequence of Calcium/calmodulin-dependent protein kinase type II subunit beta (Homo sapiens) (Q13554 whole entry): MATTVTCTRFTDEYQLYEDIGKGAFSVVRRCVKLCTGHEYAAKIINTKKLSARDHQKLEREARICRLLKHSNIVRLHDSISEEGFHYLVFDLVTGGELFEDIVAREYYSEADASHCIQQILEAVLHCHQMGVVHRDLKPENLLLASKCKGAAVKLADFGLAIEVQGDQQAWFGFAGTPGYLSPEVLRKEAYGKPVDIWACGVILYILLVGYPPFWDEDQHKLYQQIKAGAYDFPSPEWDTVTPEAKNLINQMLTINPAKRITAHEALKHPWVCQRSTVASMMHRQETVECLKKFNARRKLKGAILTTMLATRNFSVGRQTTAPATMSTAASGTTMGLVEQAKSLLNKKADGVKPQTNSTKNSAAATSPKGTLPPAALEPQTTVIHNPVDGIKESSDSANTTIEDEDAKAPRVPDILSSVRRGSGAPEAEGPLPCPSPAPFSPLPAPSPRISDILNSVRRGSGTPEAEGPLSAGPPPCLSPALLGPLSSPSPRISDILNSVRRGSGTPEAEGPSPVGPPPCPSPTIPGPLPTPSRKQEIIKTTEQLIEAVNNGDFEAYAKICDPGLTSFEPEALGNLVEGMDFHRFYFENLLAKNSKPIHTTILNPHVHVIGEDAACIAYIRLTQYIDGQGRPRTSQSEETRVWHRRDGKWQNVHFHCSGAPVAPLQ
Sequence of TRAF2 and NCK-interacting protein kinase (Homo sapiens) (Q9UKE5 whole entry, looked up): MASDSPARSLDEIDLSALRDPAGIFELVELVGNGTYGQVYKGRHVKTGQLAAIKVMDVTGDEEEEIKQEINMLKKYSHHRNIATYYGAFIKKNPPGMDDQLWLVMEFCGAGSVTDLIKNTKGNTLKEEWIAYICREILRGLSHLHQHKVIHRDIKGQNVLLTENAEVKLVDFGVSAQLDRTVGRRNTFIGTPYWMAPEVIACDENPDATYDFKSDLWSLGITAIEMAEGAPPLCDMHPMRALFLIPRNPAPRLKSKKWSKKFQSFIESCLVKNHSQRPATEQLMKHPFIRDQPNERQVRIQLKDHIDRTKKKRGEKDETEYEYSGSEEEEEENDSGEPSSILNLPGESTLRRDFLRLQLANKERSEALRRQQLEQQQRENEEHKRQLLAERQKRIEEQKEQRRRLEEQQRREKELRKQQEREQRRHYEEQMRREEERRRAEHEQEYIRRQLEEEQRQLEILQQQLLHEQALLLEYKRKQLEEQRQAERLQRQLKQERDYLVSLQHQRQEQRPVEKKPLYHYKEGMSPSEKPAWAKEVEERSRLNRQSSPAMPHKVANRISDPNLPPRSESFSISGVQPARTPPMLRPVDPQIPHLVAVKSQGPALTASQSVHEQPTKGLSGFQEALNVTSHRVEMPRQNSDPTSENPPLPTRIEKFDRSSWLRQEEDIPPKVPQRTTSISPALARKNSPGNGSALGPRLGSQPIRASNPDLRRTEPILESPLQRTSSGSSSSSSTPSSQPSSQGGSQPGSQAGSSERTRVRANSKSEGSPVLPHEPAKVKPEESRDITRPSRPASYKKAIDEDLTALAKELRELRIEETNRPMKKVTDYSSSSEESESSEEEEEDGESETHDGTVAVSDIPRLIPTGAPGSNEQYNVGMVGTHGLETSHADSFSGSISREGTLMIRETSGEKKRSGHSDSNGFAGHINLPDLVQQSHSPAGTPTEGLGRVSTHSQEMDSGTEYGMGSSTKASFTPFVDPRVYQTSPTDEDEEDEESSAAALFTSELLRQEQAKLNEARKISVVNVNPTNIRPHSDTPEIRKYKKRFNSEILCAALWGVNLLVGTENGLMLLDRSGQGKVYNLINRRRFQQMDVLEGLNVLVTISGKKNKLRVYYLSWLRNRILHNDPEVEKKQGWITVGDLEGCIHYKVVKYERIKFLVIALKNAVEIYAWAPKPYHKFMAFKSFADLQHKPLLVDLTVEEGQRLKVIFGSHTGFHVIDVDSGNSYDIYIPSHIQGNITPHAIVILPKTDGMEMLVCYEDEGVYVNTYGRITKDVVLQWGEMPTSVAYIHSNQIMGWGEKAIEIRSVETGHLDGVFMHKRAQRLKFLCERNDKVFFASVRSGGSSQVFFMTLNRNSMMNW
Sequence of MAP kinase-interacting serine/threonine-protein kinase 2 (Homo sapiens) (Q9HBH9 whole entry, looked up): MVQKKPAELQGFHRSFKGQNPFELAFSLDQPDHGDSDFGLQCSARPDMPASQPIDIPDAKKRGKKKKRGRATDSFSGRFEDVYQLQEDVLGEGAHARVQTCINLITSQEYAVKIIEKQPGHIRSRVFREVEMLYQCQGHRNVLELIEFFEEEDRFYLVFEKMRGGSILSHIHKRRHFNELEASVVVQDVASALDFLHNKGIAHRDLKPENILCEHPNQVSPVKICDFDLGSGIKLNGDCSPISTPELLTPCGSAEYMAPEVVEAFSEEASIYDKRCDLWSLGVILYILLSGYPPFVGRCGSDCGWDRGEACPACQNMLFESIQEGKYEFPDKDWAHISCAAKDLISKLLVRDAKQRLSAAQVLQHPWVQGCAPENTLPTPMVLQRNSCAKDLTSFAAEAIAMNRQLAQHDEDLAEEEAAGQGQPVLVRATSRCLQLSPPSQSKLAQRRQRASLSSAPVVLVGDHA
Sequence of 1-phosphatidylinositol 3-phosphate 5-kinase (Homo sapiens) (Q9Y2I7 whole entry): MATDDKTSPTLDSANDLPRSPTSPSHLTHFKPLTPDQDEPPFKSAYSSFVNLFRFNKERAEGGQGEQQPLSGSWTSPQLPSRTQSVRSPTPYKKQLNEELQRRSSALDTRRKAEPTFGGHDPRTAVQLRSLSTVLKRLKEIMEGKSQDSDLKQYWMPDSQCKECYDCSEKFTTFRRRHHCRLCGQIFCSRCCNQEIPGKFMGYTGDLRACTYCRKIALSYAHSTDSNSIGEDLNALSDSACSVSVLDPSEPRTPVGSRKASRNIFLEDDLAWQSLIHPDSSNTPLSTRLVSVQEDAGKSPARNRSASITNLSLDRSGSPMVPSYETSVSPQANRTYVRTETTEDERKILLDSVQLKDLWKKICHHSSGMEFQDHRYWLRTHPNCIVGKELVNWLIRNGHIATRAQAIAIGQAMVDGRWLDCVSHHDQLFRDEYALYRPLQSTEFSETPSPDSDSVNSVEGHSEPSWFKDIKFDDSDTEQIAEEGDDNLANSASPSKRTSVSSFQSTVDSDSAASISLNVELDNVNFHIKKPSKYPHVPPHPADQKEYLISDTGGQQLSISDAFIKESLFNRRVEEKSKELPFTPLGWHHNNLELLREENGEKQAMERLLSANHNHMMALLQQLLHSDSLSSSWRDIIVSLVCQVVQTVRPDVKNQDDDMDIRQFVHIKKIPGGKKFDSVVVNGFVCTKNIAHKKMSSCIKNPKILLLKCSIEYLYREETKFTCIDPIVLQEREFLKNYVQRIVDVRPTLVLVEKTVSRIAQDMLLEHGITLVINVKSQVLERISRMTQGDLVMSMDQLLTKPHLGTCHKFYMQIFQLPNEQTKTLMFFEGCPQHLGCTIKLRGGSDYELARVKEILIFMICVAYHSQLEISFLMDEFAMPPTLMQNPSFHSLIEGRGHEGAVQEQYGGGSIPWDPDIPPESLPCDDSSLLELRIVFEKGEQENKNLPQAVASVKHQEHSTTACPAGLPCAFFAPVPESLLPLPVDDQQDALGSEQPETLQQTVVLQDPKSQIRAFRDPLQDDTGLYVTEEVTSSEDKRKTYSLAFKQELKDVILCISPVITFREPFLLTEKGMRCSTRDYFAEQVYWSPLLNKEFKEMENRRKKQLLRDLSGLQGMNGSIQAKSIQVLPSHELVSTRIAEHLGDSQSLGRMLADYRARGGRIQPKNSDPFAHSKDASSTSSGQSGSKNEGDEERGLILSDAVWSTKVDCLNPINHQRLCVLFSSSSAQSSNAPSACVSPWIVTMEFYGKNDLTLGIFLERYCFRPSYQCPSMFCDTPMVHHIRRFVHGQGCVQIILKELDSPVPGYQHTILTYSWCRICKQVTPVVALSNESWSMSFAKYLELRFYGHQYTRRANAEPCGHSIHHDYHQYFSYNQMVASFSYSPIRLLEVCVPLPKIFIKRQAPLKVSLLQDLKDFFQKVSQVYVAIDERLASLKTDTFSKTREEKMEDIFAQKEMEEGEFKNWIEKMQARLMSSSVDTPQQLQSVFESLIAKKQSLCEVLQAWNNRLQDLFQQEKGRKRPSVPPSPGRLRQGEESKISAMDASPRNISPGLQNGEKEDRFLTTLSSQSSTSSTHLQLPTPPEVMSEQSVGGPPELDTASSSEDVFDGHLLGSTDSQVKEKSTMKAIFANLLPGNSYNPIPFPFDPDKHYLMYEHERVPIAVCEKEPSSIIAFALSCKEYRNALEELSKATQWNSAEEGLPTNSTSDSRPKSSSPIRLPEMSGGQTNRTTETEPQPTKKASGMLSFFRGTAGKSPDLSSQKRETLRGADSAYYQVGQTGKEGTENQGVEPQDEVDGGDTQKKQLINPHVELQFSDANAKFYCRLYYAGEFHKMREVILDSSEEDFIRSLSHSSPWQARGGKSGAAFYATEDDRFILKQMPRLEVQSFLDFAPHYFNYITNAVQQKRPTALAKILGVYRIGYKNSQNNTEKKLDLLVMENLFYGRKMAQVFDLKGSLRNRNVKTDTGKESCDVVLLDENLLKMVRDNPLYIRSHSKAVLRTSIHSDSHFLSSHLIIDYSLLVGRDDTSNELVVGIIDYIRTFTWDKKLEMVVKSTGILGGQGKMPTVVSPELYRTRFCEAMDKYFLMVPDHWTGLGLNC
Sequence of Serine/threonine-protein kinase OSR1 (Homo sapiens) (O95747 2-527 limits assumed): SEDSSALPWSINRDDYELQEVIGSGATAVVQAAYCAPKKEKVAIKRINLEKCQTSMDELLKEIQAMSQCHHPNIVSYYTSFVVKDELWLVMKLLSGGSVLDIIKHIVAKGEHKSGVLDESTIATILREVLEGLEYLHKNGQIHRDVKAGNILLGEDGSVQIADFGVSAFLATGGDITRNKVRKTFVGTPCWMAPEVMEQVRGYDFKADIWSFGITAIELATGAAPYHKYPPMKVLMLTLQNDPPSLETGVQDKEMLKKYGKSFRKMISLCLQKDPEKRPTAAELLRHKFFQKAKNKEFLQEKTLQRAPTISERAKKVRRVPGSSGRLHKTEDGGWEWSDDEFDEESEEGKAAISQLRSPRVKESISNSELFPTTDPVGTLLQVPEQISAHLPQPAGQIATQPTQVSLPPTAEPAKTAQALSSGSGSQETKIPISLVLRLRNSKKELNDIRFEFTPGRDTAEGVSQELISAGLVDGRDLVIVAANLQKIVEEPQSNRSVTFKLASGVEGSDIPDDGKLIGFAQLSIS

Nc1c(C(=O)NCc2ccc(C(=O)NCCCC3CCCCC3)cc2)cnn1-c1ccccc1 [SR-318]
inactive: residual activity [1] 100% | residual activity [2] 100% | residual activity [3] 100% | residual activity [4] 100% | residual activity [5] 70% | residual activity [6] 98% | residual activity [7] 100% | residual activity [8] 100% | residual activity [9] 86% | residual activity [10] 93% | residual activity [11] 100% | residual activity [12] 94% | residual activity [13] 100% | residual activity [14] 100% | residual activity [15] 100% | residual activity [16] 100% | inhibition [17] 22.5% | residual activity [18] 100% | residual activity [19] 100% | residual activity [20] 100% | residual activity [21] 100% | residual activity [22] 100% | residual activity [23] 90% | residual activity [24] 99% | residual activity [25] 100% | residual activity [26] 100% | inhibition [27] 28.4% | residual activity [28] 100% | residual activity [29] 100% | residual activity [30] 100% | residual activity [31] 76% | residual activity [32] 100% | residual activity [33] 79% | residual activity [34] 84% | residual activity [35] 97% | residual activity [36] 100% | inhibition [37] 41.2% | residual activity [38] 100% | residual activity [39] 93% | residual activity [40] 100% | residual activity [41] 93% | residual activity [42] 100% | inhibition [43] 1% | residual activity [44] 100% | residual activity [45] 100%

O=C(NCCCC1CCCCC1)c1ccc(CNC(=O)c2cnn(-c3ccccc3)c2C(F)(F)F)cc1 [SR-321]
inactive: residual activity [1] 92% | residual activity [2] 89% | residual activity [3] 88% | residual activity [4] 100% | residual activity [5] 100% | residual activity [6] 100% | residual activity [7] 91% | residual activity [8] 94% | residual activity [9] 100% | residual activity [10] 100% | residual activity [11] 100% | residual activity [12] 100% | residual activity [13] 89% | residual activity [14] 100% | residual activity [15] 100% | residual activity [16] 100% | inhibition [17] 19.3% | residual activity [18] 100% | residual activity [19] 92% | residual activity [20] 100% | residual activity [21] 65% | residual activity [22] 98% | residual activity [23] 98% | residual activity [24] 100% | residual activity [25] 100% | residual activity [26] 100% | inhibition [27] 23.2% | residual activity [28] 100% | residual activity [29] 89% | residual activity [30] 100% | residual activity [31] 98% | residual activity [32] 96% | residual activity [33] 79% | residual activity [34] 100% | residual activity [35] 88% | residual activity [36] 100% | inhibition [37] 19.4% | residual activity [38] 100% | residual activity [39] 90% | residual activity [40] 100% | residual activity [41] 100% | residual activity [42] 100% | inhibition [43] -6.92% | residual activity [44] 96% | residual activity [45] 100%
